# Measured values reported in PubChem BioAssay (NCI).
#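 Results reflect a 48-hour exposure of cells in 96-well plates to compound at five concentrations. GI50: concentration for 50% inhibition of growth. TGI denotes the concentration required for complete inhibition of growth.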
# Columns and labels:
# Test in all cases: DTP human tumour cell line panel, 48 h
# [1] = test system: SK-MEL-28 melanoma
# [2] = test system: EKVX NSCLC
# [3] = test system: SW-620 colon
# [4] = test system: KM12 colon
# [5] = test system: OVCAR-4 ovarian
# [6] = test system: A549 NSCLC
# [7] = test system: SK-MEL-5 melanoma
# [8] = test system: K-562 leukemia
# [9] = test system: HOP-92 NSCLC
# [10] = test system: NCI-H226 lung
Compound,TGI [1] [µM],TGI [2] [µM],TGI [3] [µM],TGI [4] [µM],TGI [5] [µM],TGI [6] [µM],TGI [7] [µM],TGI [8] [µM],TGI [9] [µM],TGI [10] [µM],GI50 [1] [µM],GI50 [2] [µM],GI50 [3] [µM],GI50 [4] [µM],GI50 [5] [µM],GI50 [6] [µM],GI50 [8] [µM],GI50 [10] [µM]
CC(C)(C)OC(=O)NCCCCC(NC(=O)c1ccccc1)C(N)=O (centres undefined),> 100,> 100,> 100,> 100,> 100,> 100,> 100,> 100,–,–,–,–,–,–,–,–,–,–
NNC(=O)c1cc(=O)[nH][nH]1,–,> 100,> 100,> 100,> 100,> 100,> 100,> 100,> 100,> 100,–,–,–,–,–,–,–,–
CCOC(=O)Cc1nc2c(N)ncnc2n1C1OC(COC(C)=O)C(OC(C)=O)C1OC(C)=O (centres undefined),> 100,> 100,> 100,> 100,–,> 100,> 100,> 100,> 100,> 100,–,–,–,–,–,–,–,–
CC(=O)N(O)c1ccc(-c2nc3ccccc3s2)cc1,> 100,–,> 100,> 100,> 100,> 100,> 100,> 100,> 100,73.2,–,–,–,–,–,–,–,–
C=CCOCn1cc(C)c(=O)[nH]c1=O,> 100,> 100,> 100,> 100,–,> 100,> 100,> 100,–,> 100,–,–,–,–,–,–,–,–
CN(C)CCNC(=O)c1cccc2c1Oc1c(cccc1[N+](=O)[O-])O2,7.87,14.3,10.2,3.46,> 100,3.42,3.24,7.55,–,0.92,–,–,–,–,–,–,–,–
CN1c2ccccc2N(C(=O)c2ccccc2)C(CC(=O)O)c2cccn21 (centres undefined),> 100,> 100,> 100,> 100,> 100,> 100,> 100,> 100,> 100,–,–,–,–,–,–,–,–,–
CCOC(=O)C1=C(C)N(c2ccc(OC)cc2)C2(O)C=CC(=O)C3=C(O)c4ccccc4C(=O)C312 (centres undefined),–,23.4,29.8,29.2,10.9,36.2,24.6,39.5,9.75,–,–,–,–,–,–,–,–,–
CC(=O)[CH-]C(=O)c1ccccc1.CC(=O)[CH-]C(=O)c1ccccc1.C[C@]12CCC(=O)C=C1CC[C@@H]1C2CC[C@@]2(C)C1CC[C@]2(C)[O-].C[C@]12CCC(=O)C=C1CC[C@@H]1C2CC[C@@]2(C)C1CC[C@]2(C)[O-].Cl.[Ti+4] (some centres undefined),43,44.7,30,71.3,> 100,40.3,–,> 100,–,56.1,11.5,17.3,3.91,13.5,42.7,16.1,3.76,14.4
CSc1c(C(=O)Nc2ccc(Cl)cc2)c(N)n(N)c(=O)c1C#N,> 100,> 100,> 100,> 100,> 100,> 100,> 100,> 100,–,> 100,–,–,–,–,–,–,–,–
CC1(C)C(=O)C(C)(C)C1=S,> 100,> 100,> 100,> 100,> 100,> 100,> 100,> 100,–,> 100,–,–,–,–,–,–,–,–
CCn1c(SCC(=O)NNC(=S)NC)nc2ccccc2c1=O,> 100,> 100,> 100,> 100,> 100,> 100,> 100,> 100,–,> 100,–,–,–,–,–,–,–,–
Nc1ncnc2c1ncn2C1CC(OCc2ccccc2[N+](=O)[O-])C(CO)O1 (centres undefined),> 50,> 50,> 50,> 50,> 50,> 50,–,> 50,> 50,36.3,–,–,–,–,–,–,–,–
CC1=NC(=Cc2ccc([N+](=O)[O-])cc2)C(=O)N1n1c(-c2ccccc2)nc2ccccc2c1=O,> 100,> 100,> 100,> 100,–,> 100,> 100,> 100,–,> 100,–,–,–,–,–,–,–,–
CCOC(=O)C1=COC(C)(CCc2ccccc2)CC1=O (centres undefined),> 100,> 100,> 100,> 100,> 100,> 100,> 100,> 100,–,–,–,–,–,–,–,–,–,–
O=C(CCc1ccccc1)ON1C(=S)C(c2ccccc2)(c2ccccc2)N=C1Sc1ccccc1,–,> 100,–,> 100,> 100,> 100,> 100,> 100,> 100,> 100,–,–,–,–,–,–,–,–
Fc1cccc(F)c1C1SCc2nc3ccc(Cl)cc3n21 (centres undefined),> 100,> 100,> 100,> 100,> 100,> 100,> 100,> 100,> 100,–,–,–,–,–,–,–,–,–
O=C(NNc1ccccc1)/C(=C/c1ccc2c(c1)OCO2)NC(=O)c1ccccc1,> 100,> 100,–,> 100,> 100,> 100,> 100,> 100,> 100,> 100,–,–,–,–,–,–,–,–
N#C/C(=C/NC(=S)c1ccncc1)C(N)=O,> 100,> 100,> 100,> 100,> 100,> 100,> 100,–,> 100,> 100,–,–,–,–,–,–,–,–
CNc1ncc(-c2nnnn2-c2ccccc2)c(CN(C)C)n1,> 100,> 100,> 100,> 100,–,> 100,> 100,> 100,> 100,> 100,–,–,–,–,–,–,–,–
O=P(O)(O)C1(P(=O)(O)O)CC1,> 100,> 100,> 100,> 100,> 100,> 100,> 100,> 100,–,> 100,–,–,–,–,–,–,–,–
COC(=O)c1ccc(Nc2nc3nc[nH]c3c(=O)[nH]2)cc1,> 100,> 100,> 100,> 100,> 100,> 100,> 100,–,> 100,> 100,–,–,–,–,–,–,–,–
